# Test results from paper PMC6738096 (British Journal of Cancer, 2019).
# How the values were obtained:
# ALK-positive tumours = experiment: Phase 1 trial: clinical activity, tumour response by RECIST 1.1; format: in vivo, human; conditions: for Best overall response: Complete response / Best overall response: Progressive disease / Best overall response: Stable disease / Objective response: Complete response + partial response / Best overall response: Partial response: ALK-positive NSCLC, 40 mg every 8 hours; for Best overall response: Partial response: confirmed and unconfirmed
# Method: The overall tumour response in all patients with measurable disease was evaluated, using Response Evaluation Criteria in Solid Tumors, version 1.1,[16] completed at times of radiologic assessment at weeks 4 and 8 after dosing and every 8 weeks thereafter. For patients without measurable disease at study entry, radiologic assessment was done as per investigator discretion.
# While tumour response data were collected from 66 patients, here, we present response data only for patients with ALK-positive tumour samples (n = 22) receiving the RP2D (40 mg Q8h).
# calcium channel = experiment: Functional patch-clamp test, calcium channel inhibition; format: cell-based
# [1] = Prior ALK inhibitor-treated (n = 8)
# [2] = ALK-positive patients (n = 22), 40 mg Q8h
# [3] = previously treated with an ALK inhibitor, RP2D
smiles,measurement,setting,value
CC(C)NC(=O)[C@H]1CC[C@@H](n2c(NC(=O)c3ccc(F)cc3)nc3ccc(CN4CCC(C(C)(C)O)CC4)cc32)CC1 [TSR-011],Partial response rate,"ALK-positive tumours; ALK inhibitor-naive, RP2D",42.9%
same,"Stable disease, patients","ALK-positive tumours; ALK inhibitor-naive, RP2D",57.1%
same,Objective response rate,"ALK-positive tumours; ALK pre-treated setting, RP2D",12.5%
same,Best overall response: Complete response,ALK-positive tumours; ALK inhibitor-naïve (n = 14),0 n (%)
same,Best overall response: Progressive disease,ALK-positive tumours; ALK inhibitor-naïve (n = 14),0 n (%)
same,Best overall response: Stable disease,ALK-positive tumours; ALK inhibitor-naïve (n = 14),8 (57.1) n (%)
same,Objective response: Complete response + partial response,ALK-positive tumours; ALK inhibitor-naïve (n = 14),6 (42.9) n (%)
same,Best overall response: Partial response,ALK-positive tumours; ALK inhibitor-naïve (n = 14),6 (42.9) n (%)
same,Best overall response: Complete response,ALK-positive tumours; All patients (N = 22),0 n (%)
same,Best overall response: Progressive disease,ALK-positive tumours; All patients (N = 22),1 (4.5) n (%)
same,Best overall response: Stable disease,ALK-positive tumours; All patients (N = 22),14 (63.6) n (%)
same,Objective response: Complete response + partial response,ALK-positive tumours; All patients (N = 22),7 (31.8) n (%)
same,Best overall response: Partial response,ALK-positive tumours; All patients (N = 22),7 (31.8) n (%)
same,Best overall response: Complete response,ALK-positive tumours; [1],0 n (%)
same,Best overall response: Progressive disease,ALK-positive tumours; [1],1 (12.5) n (%)
same,Best overall response: Stable disease,ALK-positive tumours; [1],6 (75.0) n (%)
same,Objective response: Complete response + partial response,ALK-positive tumours; [1],1 (12.5) n (%)
same,Best overall response: Partial response,ALK-positive tumours; [1],1 (12.5) n (%)
same,Complete response,ALK-positive tumours; [2],No ALK-positive patient had a complete response
same,"Stable disease, number of patients",ALK-positive tumours; [2],14
same,"Partial response, number of patients","ALK-positive tumours; ALK-positive patients (n = 22), 40 mg Q8h, six confirmed, one unconfirmed",seven
same,Response of a patient with neuroblastoma harbouring ALK mutation (R1275Q),ALK-positive tumours; one patient,did not respond
same,Partial response rate,ALK-positive tumours; [3],12.5%
same,"Stable disease, patients",ALK-positive tumours; [3],75.0%
same,IC50,calcium channel,> 10 µM
